Assay [1] concerns the target T1, Mineralocorticoid Receptor (MR) (Homo sapiens, UniProt P08235).
T1 construct: expressed in transfected cells; host or cells: 293T cells (ATCC)
T1 sequence (P08235 672-984): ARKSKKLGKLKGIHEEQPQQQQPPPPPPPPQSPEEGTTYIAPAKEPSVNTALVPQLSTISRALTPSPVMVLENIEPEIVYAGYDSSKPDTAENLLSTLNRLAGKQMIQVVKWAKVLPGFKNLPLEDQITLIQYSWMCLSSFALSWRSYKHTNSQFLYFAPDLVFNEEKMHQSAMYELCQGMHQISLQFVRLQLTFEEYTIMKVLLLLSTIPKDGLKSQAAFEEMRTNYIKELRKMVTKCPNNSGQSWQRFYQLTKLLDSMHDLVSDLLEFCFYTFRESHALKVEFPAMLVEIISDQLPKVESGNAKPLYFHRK
Description: Functional assay of mineralocorticoid receptor antagonism (Gal4-MR mammalian two hybrid luciferase reporter, 293T cells). In kind it is cell-based. The settings on record: antagonism of aldosterone (0.4 nM)-induced MR activity. On the procedure:
The MR antagonist activity of the compounds is determined in a mammalian two hybrid reporter system. The N-terminus of MR (MR-NT, sequence coding amino acid 1-597) is fused to the activation domain of the VP16 gene. The ligand binding domain of MR (MR-LBD, sequence encoding amino acid 672-984) is fused to the DNA binding domain of the yeast Gal4 gene. The MR gene is cloned from a human kidney cDNA library with PCR.
The assay is performed in 384 well plates. Briefly, 293T cells (ATCC) are transfected with expression vectors for Gal-4-MR-LBD and VP16-MR NT, and a luciferase reporter vector containing Gal4 binding sequence (pG5-Luc). Cells are plated in 384 well plates immediately after transfection (approximately 3×10^4 cells/well in 50 μl medium). The medium is supplemented with 3% charcoal-dextran treated fetal bovine serum (Hyclone). Twenty four hours after transfection, compounds prepared in DMSO are transferred to the cells. The cells are then stimulated with 0.4 nM final concentration of aldosterone (Acros) and incubated at 37° C. for another 24 hours before the luciferase activity is assayed with 20 μl of Bright-Glo (Promega) using a luminometer (CLIPR). The expression of luciferase is used as an indicator of aldosterone-induced MR trans-activation. Each compound is tested in duplicates with 12-concentration titration. IC50 values (defined as the concentration of test compound required to antagonize 50% of aldosterone-induced MR activity) are determined from the dose-response curve.

The target in assay [2] is T2, Glucocorticoid Receptor (GR) (Homo sapiens, UniProt P04150).
T2 construct: expressed in transfected cells; host or cells: COS-7 cells (ATCC)
T2 sequence (P04150 541-778 isoform P04150-3): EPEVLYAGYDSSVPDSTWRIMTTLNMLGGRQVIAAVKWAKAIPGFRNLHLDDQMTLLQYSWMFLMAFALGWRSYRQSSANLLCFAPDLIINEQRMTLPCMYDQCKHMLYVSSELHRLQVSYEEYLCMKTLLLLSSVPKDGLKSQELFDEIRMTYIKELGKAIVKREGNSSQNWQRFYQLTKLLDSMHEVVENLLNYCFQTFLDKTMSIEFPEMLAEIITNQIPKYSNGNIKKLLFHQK
The assay is described as follows: Functional assay of glucocorticoid receptor antagonism (Gal4-GR-LBD luciferase reporter, COS-7 cells). Conditions: antagonism of dexamethasone (10 nM)-induced GR activity. It counts as cell-based. How it is done:
The GR antagonist activity of the compounds is determined in a mammalian two hybrid reporter system. The ligand binding domain of GR (GR-LBD, sequence encoding amino acid 541-778) is fused to the DNA binding domain of the yeast Gal4 gene. The GR gene is cloned from a human lung cDNA library with PCR.
The assay is performed in 384 well plates: COS-7 cells (ATCC) are transfected with expression vectors for Gal-4-GR-LBD and a luciferase reporter vector containing Gal4 binding sequence (pG5-Luc). Cells are plated in 384 well plates immediately after transfection (approximately 8000 cells/well in 50 μl medium). The medium is supplemented with 3% charcoal-dextran treated fetal bovine serum (Hyclone). Twenty four hours after transfection, compounds prepared in DMSO are transferred to the cells. The cells are then stimulated with 10 nM final concentration of dexamethasone (Sigma) and incubated at 37° C. for another 24 hours before the luciferase activity is assayed with 20 μl of Bright-Glo (Promega) using a luminometer (CLIPR). The expression of luciferase is used as an indicator of dexamethasone-induced GR trans-activation. Each compound is tested in duplicates with a 12-concentration titration. IC50 values (defined as the concentration of test compound required to antagonize 50% of dexamethasone-induced GR activity) are determined from the dose-response curve.
(In general: A reporter such as luciferase makes a cellular process visible.)

Structures are written as SMILES. Where only a bound is given, the exact number is not on record here.

This passage reports IC50 results from patent US7807841B2, “Spiro-containing compounds and compositions as modulators of steroid hormone nuclear receptors” (IRM LLC, priority 2005, dated 2010).

Regarding `CC12CCC(=O)N1CC1(O2)c2ccccc2C=Cc2ccccc21` (single isomer, unassigned) [FRS-1 (Chiral Synthesis)], the IC50 in assay [1] was under 100 nM; in assay [2], 1000 to 10000 nM.

Turning to `CC12CCC(=O)N1CC1(O2)c2ccccc2CCc2ccccc21` (single isomer, unassigned) [FRS-13 (Chiral Synthesis)], the figures for the IC50 in assay [1] and in assay [2] were under 100 nM and over 10000 nM, respectively.

On to `CC12CCC(=O)N1CC1(O2)c2ccccc2C=Cc2ccccc21` (centres unmarked) [FRS-1], for which the IC50 in assay [1] was under 100 nM; in assay [2], over 10000 nM.

As to `O=C1CCC2(c3ccccc3)OC3(CN12)c1ccccc1C=Cc1ccccc13` (centres unmarked) [FRS-2], the IC50 is 100 to 1000 nM in assay [1] and over 10000 nM in assay [2].

Take `O=C1CCC2(c3ccc(F)cc3)OC3(CN12)c1ccccc1C=Cc1ccccc13` (centres unmarked) [FRS-3]: the figures for the IC50 in assay [1] and in assay [2] were 100 to 1000 nM and over 10000 nM, respectively.

In the case of `CC12CCCC(=O)N1CC1(O2)c2ccccc2C=Cc2ccccc21` (centres unmarked) [FRS-4], the IC50 in assay [1] is 100 to 1000 nM; in assay [2], over 10000 nM.

In the case of `COc1ccc(C23CCC(=O)N2CC2(O3)c3ccccc3C=Cc3ccccc32)cc1` (centres unmarked) [FRS-5], the IC50 was 100 to 1000 nM in assay [1] and over 10000 nM in assay [2].

Turning to `CC12CCCCC(=O)N1CC1(O2)c2ccccc2C=Cc2ccccc21` (centres unmarked) [FRS-6], the IC50 was 100 to 1000 nM in assay [1] and over 10000 nM in assay [2].

Consider `O=C1CCC2(c3cccs3)OC3(CN12)c1ccccc1C=Cc1ccccc13` (centres unmarked) [FRS-8], for which the IC50 was under 100 nM in assay [1] and 1000 to 10000 nM in assay [2].

For the molecule `CCCC12CCC(=O)N1CC1(O2)c2ccccc2C=Cc2ccccc21` (centres unmarked) [FRS-9], the IC50 is under 100 nM in assay [1] and 1000 to 10000 nM in assay [2].

`O=C1CCC2(C3CC3)OC3(CN12)c1ccccc1C=Cc1ccccc13` (centres unmarked) [FRS-10]: the IC50 in assay [1] was under 100 nM; in assay [2] it was 1000 to 10000 nM.

For the molecule `O=C1CCCC2(C(F)(F)F)OC3(CN12)c1ccccc1C=Cc1ccccc13` (centres unmarked) [FRS-11], the IC50 was under 100 nM in assay [1] and 1000 to 10000 nM in assay [2].

Take `CC12CCC(=O)N1CC1(O2)c2ccccc2CCc2ccccc21` (centres unmarked) [FRS-13]: the IC50 in assay [1] is under 100 nM; in assay [2], over 10000 nM.

Consider `CC12CCCC(=O)N1CC1(O2)c2ccccc2CCc2ccccc21` (centres unmarked) [FRS-14], for which the IC50 in assay [1] is 100 to 1000 nM; in assay [2], over 10000 nM.

Consider `Oc1ccc(C2=NCC3(O2)c2ccccc2C=Cc2ccccc23)cc1` [OXS-1], for which the IC50 in assay [1] was 100 to 1000 nM; in assay [2], over 10000 nM.

In the case of `CC1(C)OC2(CN1C(=O)Nc1ccc(F)cc1F)c1ccccc1C=Cc1ccccc12` [SOXS-1], the IC50 in assay [1] was 1000 to 10000 nM; in assay [2], over 10000 nM.

Turning to `CC(=O)N1CC2(OC1(C)C)c1ccccc1C=Cc1ccccc12` [SOXS-3], the results for the IC50 in assay [1] and in assay [2] were 100 to 1000 nM and 1000 to 10000 nM, respectively.

For the molecule `CC1(C)OC2(CN1S(C)(=O)=O)c1ccccc1C=Cc1ccccc12` [SOXS-4], the IC50 in assay [1] is under 100 nM; in assay [2], over 10000 nM.

Turning to `CC(=O)N1CC2(OC13CCCCC3)c1ccccc1C=Cc1ccccc12` [SOXS-6], the IC50 in assay [1] is 100 to 1000 nM; in assay [2], over 10000 nM.

For orientation: IC50 means the concentration needed to halve the response being measured. Read a high IC50 as lower potency.
